Results on 16 compounds are retold here after patent US20230279023A1, “N/O-Linked Degrons and Degronimers for Protein Degradation” (C4 Therapeutics, Inc., priority 2019, published 2023).

For this assay, the target named is CRBN-DDB1 (Homo sapiens (Human), UniProt Q96SW2). Description: Fluorescence polarization (FP) assay for compound ligand binding to CRBN-DDB1. The settings on record: FP displacement of (−)-Thalidomide-Alexa Fluor or Pomalidomide-fluorescein probe, 400 nM CRBN-DDB1, 5 nM probe. The method, then:
Measuring compound ligand binding to CRBN-DDB1 was carried out using an established sensitive and quantitative in vitro fluorescence polarization (FP) based binding assay. […] Compounds were dispensed from serially diluted DMSO stock into black 384-well compatible fluorescence polarization plates using an Echo acoustic dispenser. Compound binding to CRBN-DDB1 was measured by displacement of either a (−)-Thalidomide-Alexa Fluor® or Pomalidomide-fluorescein conjugated probe dye. […] Matching control wells excluding CRBN-DDB1 were used to correct for background fluorescence. Plates were read on an Envision plate reader with appropriate FP filter sets. The corrected S (perpendicular) and P (parallel) values were used to calculate fluorescence polarization (FP) with the following equation: […]

Where [1] appears, read: Additional Compounds of the Present Invention.

CRBN-DDB1, sequence (Q96SW2 whole entry): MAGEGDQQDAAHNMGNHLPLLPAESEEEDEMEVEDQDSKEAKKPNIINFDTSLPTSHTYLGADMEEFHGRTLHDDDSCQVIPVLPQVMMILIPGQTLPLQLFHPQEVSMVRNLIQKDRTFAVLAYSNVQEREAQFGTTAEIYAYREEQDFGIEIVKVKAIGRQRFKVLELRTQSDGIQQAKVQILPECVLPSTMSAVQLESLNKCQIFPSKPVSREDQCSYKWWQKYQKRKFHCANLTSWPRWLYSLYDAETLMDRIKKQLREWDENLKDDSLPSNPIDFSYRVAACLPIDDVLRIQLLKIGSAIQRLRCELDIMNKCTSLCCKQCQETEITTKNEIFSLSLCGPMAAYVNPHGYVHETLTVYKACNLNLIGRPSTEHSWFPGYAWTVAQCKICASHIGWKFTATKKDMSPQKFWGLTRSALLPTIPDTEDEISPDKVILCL
CRBN-DDB1, sequence (Q16531 whole entry partner): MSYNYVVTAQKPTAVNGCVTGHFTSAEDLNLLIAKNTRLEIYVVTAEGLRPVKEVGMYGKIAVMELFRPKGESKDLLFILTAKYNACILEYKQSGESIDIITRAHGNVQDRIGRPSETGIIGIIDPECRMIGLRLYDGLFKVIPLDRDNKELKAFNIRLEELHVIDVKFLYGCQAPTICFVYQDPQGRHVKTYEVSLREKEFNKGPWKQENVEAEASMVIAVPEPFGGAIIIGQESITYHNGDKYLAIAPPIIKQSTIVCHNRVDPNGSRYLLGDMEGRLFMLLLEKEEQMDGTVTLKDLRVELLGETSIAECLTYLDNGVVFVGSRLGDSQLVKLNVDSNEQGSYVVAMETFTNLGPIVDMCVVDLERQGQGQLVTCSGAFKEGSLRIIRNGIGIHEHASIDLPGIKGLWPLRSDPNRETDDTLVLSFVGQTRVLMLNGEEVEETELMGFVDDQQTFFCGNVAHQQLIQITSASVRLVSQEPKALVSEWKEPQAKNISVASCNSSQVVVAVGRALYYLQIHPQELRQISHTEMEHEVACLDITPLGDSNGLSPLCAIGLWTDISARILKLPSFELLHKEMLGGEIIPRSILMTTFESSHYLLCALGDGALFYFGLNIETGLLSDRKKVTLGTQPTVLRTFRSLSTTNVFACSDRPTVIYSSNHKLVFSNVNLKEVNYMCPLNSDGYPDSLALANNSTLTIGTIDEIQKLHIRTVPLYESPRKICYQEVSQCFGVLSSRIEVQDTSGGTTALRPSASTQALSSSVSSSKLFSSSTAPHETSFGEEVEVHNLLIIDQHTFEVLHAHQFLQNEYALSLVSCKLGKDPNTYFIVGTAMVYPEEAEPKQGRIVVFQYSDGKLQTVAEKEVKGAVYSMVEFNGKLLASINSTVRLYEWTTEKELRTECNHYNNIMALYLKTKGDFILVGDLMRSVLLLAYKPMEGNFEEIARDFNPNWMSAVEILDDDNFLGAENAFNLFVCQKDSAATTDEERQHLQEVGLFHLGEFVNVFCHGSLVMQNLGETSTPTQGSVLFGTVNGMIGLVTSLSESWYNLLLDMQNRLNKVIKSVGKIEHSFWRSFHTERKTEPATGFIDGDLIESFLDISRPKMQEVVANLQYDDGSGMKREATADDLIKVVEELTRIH

`CCc1ccc(OC2CCC(=O)NC2=O)cc1` (stereo not shown) [Compound 137] returned a dissociation constant Kd under setting [1] below 10 µM.
Take `N#Cc1ccc2cc(OC3CCC(=O)NC3=O)ccc2c1` (stereo not shown) [Compound 138]: under setting [1], the Kd is below 10 µM.
In the case of `N#Cc1ccc(-c2ccc(OC3CCC(=O)NC3=O)cc2)cc1` (stereo not shown) [Compound 139], the Kd under setting [1] was below 10 µM.
As for `Cn1ccc2cc(OC3CCC(=O)NC3=O)ccc21` (stereo not shown) [Compound 140], the Kd under setting [1] is below 10 µM.
Still for that read-out and setting: the value for `CCOc1cccc(OC2CCC(=O)NC2=O)c1` (stereo not shown) [Compound 141] was below 10 µM; that for `CC1(C)Cc2cccc(OC3CCC(=O)NC3=O)c2O1` (stereo not shown) [Compound 145] was below 10 µM.
As for `O=C1CCC(Oc2cccc3cccnc23)C(=O)N1` (stereo not shown) [Compound 147], the equilibrium dissociation constant (Kd) under setting [1] is below 10 µM.
Under setting [1], `O=C1CCC(Oc2ccc3c(c2)CCCC3=O)C(=O)N1` (stereo not shown) [Compound 148] yielded a Kd below 10 µM.
With `O=C1CCC(Oc2ccc3c(c2)OCO3)C(=O)N1` (stereo not shown) [Compound 149], under setting [1], the Kd was below 10 µM.
On the same count and under the same terms, next, `C#Cc1cccc(OC2CCC(=O)NC2=O)c1` (stereo not shown) [Compound 150]: below 10 µM; `CN(C)c1cccc(OC2CCC(=O)NC2=O)c1` (stereo not shown) [Compound 151]: below 10 µM.
Still for that read-out and setting: the value for `O=C1CCC(Oc2ccc(C3CCCC3)cc2)C(=O)N1` (stereo not shown) [Compound 152] was below 10 µM; that for `CC(=O)CCc1ccc(OC2CCC(=O)NC2=O)cc1` (stereo not shown) [Compound 154] was below 10 µM.
In the case of `CN1Cc2cc(NC3CCC(=O)NC3=O)ccc2C1=O` (stereo not shown) [Compound 160], the dissociation constant (Kd) under setting [1] was below 10 µM.
Under “Degronimers”, `Cc1sc2c(c1C)C(c1ccc(Cl)cc1)=N[C@@H](CC(=O)NCCCCCCCCN1CCN(c3ccc(NC4CCC(=O)NC4=O)cc3)CC1)c1nnc(C)n1-2` (stereo partly drawn) [Degronimer 1, 2-((S)-4-(4-chlorophenyl)-2,3,9-trimethyl-6H-thieno[3,2-f][1,2,4]triazolo[4,3-a][1,4]diazepin-6-yl)-N-(8-(4-(4-((2,6-dioxopiperidin-3-yl)amino)phenyl)piperazin-1-yl)octyl)acetamide] had a Kd below 10 µM.
Turning to `Cc1nnc2n1-c1ccc(-c3cnn(CCCCCCN4CCN(c5ccc(NC6CCC(=O)NC6=O)cc5)CC4)c3)cc1C(c1ccc(Cl)cc1)=NC21CC1` (stereo not shown) [Degronimer 2, 3-((4-(4-(6-(4-(6-(4-chlorophenyl)-1-methylspiro[benzo[f][1,2,4]triazolo[4,3-a][1,4]diazepine-4,1′-cyclopropan]-8-yl)-1H-pyrazol-1-yl)hexyl)piperazin-1-yl)phenyl)amino)piperidine-2,6-dione], under “Degronimers”, the dissociation constant Kd was below 10 µM.
